Source: patent publication US12337023B2, “Methods and compositions for the prevention and treatment of disease” (Stealth BioTherapeutics Inc., priority 2014, dated 2025)
Non-standard residues stand in square brackets, D forms with d. Residues, ends and D or L forms follow the SMILES beside them. No end group written: not given here. Dmt = Cc1cc(O)cc(C)c1C[C@H](N)C(=O)O

Assays:
[1] = system: several mammalian cell types; settings: energy-independent manner (Zhao, et al., 2003); cited from earlier work
[2] = system: Col4a3 null mice (Alport mice); test: Survival of Col4a3 null mice (Alport Syndrome mouse model); type: in vivo; settings: 1 mg/kg or 5 mg/kg once daily subcutaneous
Text: Six animals from experimental groups (1)-(4) were sacrificed for tissue collection at week 15. One kidney from each animal was harvested for protein/RNA analysis and the second kidney was collected for paraffin sections for analysis via microscopy. Survival data was collected for the remaining 10 animals in groups (1)-(4).

[3] = Col4a3 null mice, daily 5 mg/kg, 15 weeks of age, 30 minutes after the last injection; compared with 5 mg/kg at 6 weeks and 1 mg/kg at 15 weeks
Protocol: Homozygous male Col4a3 null mice and wild-type litter mates were used in this study. Subjects were divided into the following groups: • (1) Healthy wild-type controls • (2) Col4a3 null mice treated with water • (3) Col4a3 null mice treated with 1 mg/kg D-Arg-2′6′-Dmt-Lys-Phe-NH2 • (4) Col4a3 null mice treated with 5 mg/kg D-Arg-2′6′-Dmt-Lys-Phe-NH2 • (5) Col4a3 null mice treated with 5 mg/kg D-Arg-2′6′-Dmt-Lys-Phe-NH2 (Pharmacokinetics group)
Groups (1)-(4) consisted of 16 mice, out of which 10 were used for survival rate studies and 6 for pathology and RNA/protein analysis. Group (5) consisted of 6 mice, 3 of which were sacrificed at 30 minutes after the 7th injection (age, 6 weeks), and 3 at 24 hours after the 7th injection (age, 6 weeks).

[4] = biological target: mu-opioid receptor (Homo sapiens, UniProt P35372); settings: stated in the description, no test described; cited from earlier work
Chain of mu-opioid receptor (P35372 whole entry, species assumed): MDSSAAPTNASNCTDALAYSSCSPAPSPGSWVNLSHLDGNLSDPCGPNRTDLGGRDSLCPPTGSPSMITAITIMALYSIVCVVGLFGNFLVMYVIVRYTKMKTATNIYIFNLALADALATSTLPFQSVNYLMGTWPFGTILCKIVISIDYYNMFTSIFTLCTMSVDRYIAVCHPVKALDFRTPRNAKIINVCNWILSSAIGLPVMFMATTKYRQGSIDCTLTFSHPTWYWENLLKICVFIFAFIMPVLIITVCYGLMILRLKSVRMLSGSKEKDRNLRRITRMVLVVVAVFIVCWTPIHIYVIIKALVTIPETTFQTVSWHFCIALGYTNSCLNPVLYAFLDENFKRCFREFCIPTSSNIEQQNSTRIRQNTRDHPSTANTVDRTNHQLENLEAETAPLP

2′,6′-Dmt-D-Arg-Phe-Lys-NH2
penetration of the plasma membrane [1]: readily penetrates the plasma membrane

Cc1cc(O)cc(C)c1C[C@H](NC(=O)[C@H](N)CCCNC(=N)N)C(=O)N[C@@H](CCCCN)C(=O)N[C@@H](Cc1ccccc1)C(N)=O [D-Arg-2′,6′-Dmt-Lys-Phe-NH2] (H-[dR][Dmt]KF-NH2)
harm of peptide administration [2]: not harmful
plasma levels [3]: highest

F[dR]FK-NH2
mu-opioid receptor agonist activity [4]: does not have mu-opioid receptor agonist activity

Tyr-D-Arg-Phe-Lys-NH2
mu-opioid receptor agonist activity [4]: has mu-opioid receptor agonist activity
